Target: human active recombinant p38α-6His tagged (Homo sapiens, UniProt Q16539)
Assay: P38 Alpha Enzyme Assay (AlphaScreen, biotinylated-ATF2 substrate);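 also: 0.5 nM final p38α, reaction started with ATP and run 45 min at 37 °C, phospho-ATF2 read by antibody-based AlphaScreen, background wells quenched with EDTA before ATP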
Format: biochemical
Details: p38 alpha enzyme inhibition; means of replicate determinations; 4 h pre-incubation at 37° C.; SD of assay 0.2-0.3 log units

Sequence of human active recombinant p38α-6His tagged (Q16539 whole entry): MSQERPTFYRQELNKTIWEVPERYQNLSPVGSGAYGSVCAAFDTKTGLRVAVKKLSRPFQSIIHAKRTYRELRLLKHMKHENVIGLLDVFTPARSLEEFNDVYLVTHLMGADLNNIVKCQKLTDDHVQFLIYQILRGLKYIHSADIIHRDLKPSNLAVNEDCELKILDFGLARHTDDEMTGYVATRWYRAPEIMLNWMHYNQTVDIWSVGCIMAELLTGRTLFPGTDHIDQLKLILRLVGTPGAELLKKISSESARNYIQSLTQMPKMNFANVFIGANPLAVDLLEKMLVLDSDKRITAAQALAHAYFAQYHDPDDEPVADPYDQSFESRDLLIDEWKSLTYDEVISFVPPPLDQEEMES

SMILES | pIC50
Cc1ccc(C(=O)NC2CC2)cc1-n1ccnc(N2CCCC(c3ccc(OCCN4CCCC4)cc3)C2)c1=O (stereo not shown) [Example 59, N-Cyclopropyl-4-methyl-3-[2-oxo-3-[3-[4-[2-(1-pyrrolidinyl)ethoxy]phenyl]-1-piperidinyl]-1(2H)-pyrazinyl]-benzamide] | 7.2
Cc1ccc(C(=O)NC2CC2)cc1-n1ccnc(NCCCN(C)C)c1=O [Example 3, N-Cyclopropyl-3-[3-[[3-(dimethylamino)propyl]amino]-2-oxo-1(2H)-pyrazinyl]-4-methyl-benzamide] | 6.1
Cc1c(F)cc(C(=O)NC2CC2)cc1-n1ccnc(N[C@@H](c2ccccc2)[C@@H](C)CN2CCCCC2)c1=O [Example 329, N-Cyclopropyl-3-fluoro-4-methyl-5-[3-{[(1R,2S)-2-methyl-1-phenyl-3-piperidin-1-ylpropyl]amino}-2-oxopyrazin-1(2H)-yl]benzamide] | 9.6
Cc1ccc(C(=O)NC2CC2)cc1-n1ccnc(NCc2cc(C(F)(F)F)cc(C(F)(F)F)c2)c1=O [Example 99, 3-[3-[[[3,5-Bis(trifluoromethyl)phenyl]methyl]amino]-2-oxo-1(2H)-pyrazinyl]-N-cyclopropyl-4-methyl-benzamide] | 7.1
CC(C)(Nc1nccn(-c2cc(C(=O)NC3CC3)ccc2Cl)c1=O)c1ccccc1OCCN [Example 334, 3-[3-({1-[2-(2-Aminoethoxy)phenyl]-1-methylethyl}amino)-2-oxopyrazin-1(2H)-yl]-4-chloro-N-cyclopropylbenzamide] | 9.3
Cc1ccc(C(=O)NC2CC2)cc1-n1ccnc(N2CCN(C)CC2)c1=O [Example 2, N-Cyclopropyl-4-methyl-3-[3-(4-methyl-1-piperazinyl)-2-oxo-1(2H)-pyrazinyl]-benzamide] | 6.4
Cc1ccc(C(=O)NC2CC2)cc1-n1ccnc(NCCN(C)C)c1=O [Example 5, N-Cyclopropyl-3-[3-[[2-(dimethylamino)ethyl]amino]-2-oxo-1(2H)-pyrazinyl]-4-methyl-benzamide] | 5.9
Cc1ccc(C(=O)NC2CC2)cc1-n1ccnc(NC2(c3ccccc3OCCN3CCC[C@H]3CO)CC2)c1=O [Example 239, N-Cyclopropyl-3-[3-[[1-[2-[2-[(2S)-2-(hydroxymethyl)-1-pyrrolidinyl]ethoxy]phenyl]cyclopropyl]amino]-2-oxo-1(2H)-pyrazinyl]-4-methyl-benzamide] | 9.6
CCNCCOc1c(F)cccc1C1(Nc2nccn(-c3cc(C(=O)NC4CC4)ccc3C)c2=O)CC1 [Example 286, N-Cyclopropyl-3-{3-[(1-{2-[2-(ethylamino)ethoxy]-3-fluorophenyl}cyclopropyl)amino]-2-oxopyrazin-1(2H)-yl}-4-methylbenzamide] | 9.3

Now from value to compound:

pIC50 | SMILES
6.4 | Cc1ccc(C(=O)NC2CC2)cc1-n1ccnc(NC[C@@H](O)c2ccccc2)c1=O [Example 56, N-Cyclopropyl-3-[3-[[(2S)-2-hydroxy-2-phenylethyl]amino]-2-oxo-1(2H)-pyrazinyl]-4-methyl-benzamide]
8.9 | Cc1ccc(C(=O)NC2CC2)cc1-n1ccnc(N[C@@H](c2ccccc2)[C@@H](C)CN(C)CCN(C)C)c1=O [Example 156, N-Cyclopropyl-3-[3-[[(1R,2S)-3-[[2-(dimethylamino)ethyl]methylamino]-2-methyl-1-phenylpropyl]amino]-2-oxo-1(2H)-pyrazinyl]-4-methyl-benzamide]
6.5 | Cc1ccc(C(=O)NC2CC2)cc1-n1ccnc(N2CCC(c3ccccc3)C2)c1=O (stereo not shown) [Example 54, N-Cyclopropyl-4-methyl-3-[2-oxo-3-(3-phenyl-1-pyrrolidinyl)-1(2H)-pyrazinyl]-benzamide]
8.8 | Cc1ccc(C(=O)NC2CC2)cc1-n1ccnc(N[C@@H](c2ccccc2)[C@@H](C)CN2CCN(C(C)C)CC2)c1=O [Example 171, N-Cyclopropyl-4-methyl-3-[3-[[(1R,2S)-2-methyl-3-[4-(1-methylethyl)-1-piperazinyl]-1-phenylpropyl]amino]-2-oxo-1(2H)-pyrazinyl]-benzamide]

From US20120214822A1 (ASTRAZENECA AB, priority 2007, published 2012)
